Experimental data from patent US20130045940A1, “COMPOSITION COMPRISING AS ACTIVE INGREDIENT L-CARNITINE IN COMBINATION WITH A SOLAR FILTER, FOR THE PREVENTION AND/OR TREATMENT OF PATHOLOGIES OF THE EYE DUE TO ULTRAVIOLET RADIATION” (SIGMA-TAU INDUSTRIE FARMACEUTICHE RIUNITE S.P.A., priority 2010, published 2013).

Assays:
[1] = test system: functional retinal status; experiment: functional retinal status (FERG, mfERG) in subjects with age-related maculopathy, 6 months of eye drops; type: in vivo, human; details: for amplitudes found with the FERG / mfERG: after 6 months treatment vs before; for SCORE AFTER 6 MONTHS OF TREATMENT (ARBITRARY SCALE): three times a day for 6 months, 0 = no variation respect to time zero, −10 = worsening of the symptoms
Description: In order to evaluate the protective effect of the eye drops being examined on the internal structures of the eye in subjects suffering from age-related maculopathy, the following experimental procedure was carried out. 24 Subjects between 49 and 74 years of age, irrespective of gender, received for 6 months the eye drops of Example 1 (complete composition) three times a day. Subjects were subdivided into 4 equal groups and treated as reported in the following: The functional retinal status of the patients was evaluated using the focal electroretinogram (FERG) and the multifocal electroretinogram (mfERG) methods, before and after 6 months treatment. These two methods are useful for evaluating the electrical activity of the 30° retinal centres (Invest. Ophthalmol. Vis. Sci., 1986; 27: 1123-1130; Eye, 2005; 19:431-441).

[2] = solubility of 3-HKG in water; type: physicochemical; details: amount of 0.1 mg/mL (as in WO2008/077712)
[3] = test system: corneal epithelium; experiment: protective effect on the corneal epithelium against UV A/B radiation in rabbits (morphology, TUNEL); type: in vivo, rabbit; details: for damage to the DNA (TUNEL) / corneal tissue morphology (hematoxylin-eosin): treated left eye after UV exposure; for corneal tissue morphology (hematoxylin-eosin): compared with untreated animals; for EYE LEFT Score (arbitrary scale): treated left eye, instilled every 2 hours for eight hours, then 2091 seconds of UV 290/360 nm, Negative Control = 10, UV-exposed untreated right eye = 1
Description: In all the groups treated (groups 1-4) the right eye acted as a positive control. The following compositions were instilled respectively into the left eye every 2 hours for eight hours:
Then the animals were exposed for 2091 seconds to UV radiation using a xenon-mercury lamp, 5000 W, 290/360 nm, (Photochem. Photobiol. 1989; 49:175-180) after which the animals were killed and the eyeballs removed and placed in a fixative (4% paraformaldehyde). The cornea was then removed, included in paraffin and then evaluated for its morphological aspects and the cellular degeneration. The morphology was examined by means of hematoxylin-eosin staining whereas the cellular parameters were examined with vital exclusion stains and the TUNEL technique (analysis of DNA fragmentation, by means of terminal transferase, as a consequence of cellular stress) (Arch. Ophthalmol. 1987; 115:1031-1035).

Row | SMILES | amplitudes found with the FERG [1] | mfERG [1] | SCORE AFTER 6 MONTHS OF TREATMENT (ARBITRARY SCALE) [1] | solubility in water [2] | damage to the DNA (TUNEL) [3] | corneal tissue morphology (hematoxylin-eosin) [3] | EYE LEFT Score (arbitrary scale) [3]
1 | Nc1c(O[C@@H]2O[C@H](CO)[C@@H](O)[C@H](O)[C@H]2O)cccc1C(=O)CC(N)C(=O)O (mixture of isomers) [Group 3, 3-Hydroxykynurenine O-β-DL-glucoside] | substantial stability | significant worsening | −4 arbitrary scale | not (completely) soluble in water | no damage to the DNA was seen | tissue appeared damaged although this was not very apparent | 4 arbitrary scale
2 | C[N+](C)(C)C[C@H](O)CC(=O)[O-] [Group 2, L-carnitine] | reduction | significant worsening | −6 arbitrary scale |  | no damage to the DNA was seen | tissue appeared damaged | 3 arbitrary scale
